Test results: US12077503B2, “Substituted cyclic amides and their use as herbicides” (FMC CORPORATION, priority 2015, dated 2024)

Assays:
Type in all cases: in vivo
[1] = tested on: Kochia (Kochia scoparia); experiment: Test A preemergence; conditions: Bassia scoparia, pre-emergence, 240 h
Procedure, shortened: (§1)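 Compounds were formulated in a non-phytotoxic solvent mixture with surfactant and applied as a preemergence directed soil spray after seeding, or sprayed postemergence over plants 2 to 10 cm tall at the one- to two-leaf stage. Evaluation after about 10 d compared treated with untreated controls, using a scale from 0 (no effect) to 100 (complete control).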

[2] = tested on: barnyardgrass (Echinochloa crus-galli); experiment: Test A preemergence; conditions: Echinochloa crus-galli, pre-emergence, 240 h
Procedure, shortened: as §1

[3] = tested on: giant foxtail (Setaria faberii); experiment: Test A preemergence; conditions: Setaria faberi, pre-emergence, 240 h
Procedure, shortened: as §1

[4] = tested on: pigweed (Amaranthus retroflexus); experiment: Test A preemergence; conditions: Amaranthus retroflexus, pre-emergence, 240 h
[5] = tested on: ragweed (common ragweed, Ambrosia elatior); experiment: Test A preemergence; conditions: Ambrosia artemisiifolia, pre-emergence, 240 h
Procedure, shortened: as §1

[6] = tested on: ryegrass, Italian (Italian ryegrass, Lolium multiflorum); experiment: Test A preemergence; conditions: Lolium multiflorum, pre-emergence, 240 h
Procedure, shortened: as §1

[7] = tested on: Galium (catchweed bedstraw, Galium aparine); experiment: Test A postemergence; conditions: Galium, post-emergence, 240 h, read-out: Plant response rating, Galium
Procedure, shortened: as §1

[8] = tested on: Kochia (Kochia scoparia); experiment: Test A postemergence; conditions: Bassia scoparia, post-emergence, 240 h, read-out: Plant response rating, Kochia
Procedure, shortened: as §1

[9] = tested on: barnyardgrass (Echinochloa crus-galli); experiment: Test A postemergence; conditions: Echinochloa crus-galli, post-emergence, 240 h, read-out: Plant response rating, Barnyardgrass
Procedure, shortened: as §1

[10] = tested on: blackgrass (Alopecurus myosuroides); experiment: Test A postemergence; conditions: Alopecurus myosuroides, post-emergence, 240 h, read-out: Plant response rating, Blackgrass
Procedure, shortened: as §1

[11] = tested on: corn (Zea mays); experiment: Test A postemergence; conditions: Zea mays, post-emergence, 240 h
Procedure, shortened: as §1

[12] = tested on: giant foxtail (Setaria faberii); experiment: Test A postemergence; conditions: Setaria faberi, post-emergence, 240 h, read-out: Plant response rating, Foxtail, Giant
Procedure, shortened: as §1

[13] = tested on: pigweed (Amaranthus retroflexus); experiment: Test A postemergence; conditions: Amaranthus retroflexus, post-emergence, 240 h, read-out: Plant response rating, Pigweed
Procedure, shortened: as §1

[14] = tested on: ragweed (common ragweed, Ambrosia elatior); experiment: Test A postemergence; conditions: Ambrosia artemisiifolia, post-emergence, 240 h, read-out: Plant response rating, Ragweed
Procedure, shortened: as §1

[15] = tested on: ryegrass, Italian (Italian ryegrass, Lolium multiflorum); experiment: Test A postemergence; conditions: Lolium multiflorum, post-emergence, 240 h, read-out: Plant response rating, Ryegrass, Italian
Procedure, shortened: as §1

[16] = tested on: wheat (Triticum aestivum); experiment: Test A postemergence; conditions: Triticum aestivum, post-emergence, 240 h, read-out: Plant response rating, Wheat
Procedure, shortened: as §1

[17] = tested on: barnyardgrass (Echinochloa crus-galli); experiment: Test B flooded paddy test; conditions: Echinochloa crus-galli, 250 g ai/ha, Flood; 0 to 100 scale where 0 is no effect and 100 is complete control; read-out: Barnyardgrass plant response rating
Procedure, shortened: (§2)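 Flooding to 3 cm over soil accompanied treatment, which consisted of adding compound to the standing water around 2-leaf plants; depth was then maintained. Visual assessment versus controls followed at 13 to 15 d (scale 0–100, 0 meaning no effect).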

[18] = tested on: ducksalad (Heteranthera limosa); experiment: Test B flooded paddy test; conditions: Heteranthera limosa, 250 g ai/ha, Flood; 0 to 100 scale where 0 is no effect and 100 is complete control; read-out: Ducksalad plant response rating
Procedure, shortened: as §2

[19] = tested on: rice (Oryra sativa); experiment: Test B flooded paddy test; conditions: Oryza sativa, 250 g ai/ha, Flood; 0 to 100 scale where 0 is no effect and 100 is complete control; read-out: Rice plant response rating
Procedure, shortened: as §2

[20] = tested on: sedge, umbrella (small-flower umbrella sedge, Cyperus difformis); experiment: Test B flooded paddy test; conditions: Cyperus difformis, 250 g ai/ha, Flood; 0 to 100 scale where 0 is no effect and 100 is complete control; read-out: Sedge, Umbrella plant response rating
Procedure, shortened: as §2

[21] = 125 g ai/ha, Postemergence, visual injury after approximately 10 d, 0 to 100 scale where 0 is no effect and 100 is complete control
[22] = 500 g ai/ha, postemergence, visual injury, 0 to 100 scale (0 no effect, 100 complete control), approx. 10 d

CSc1ccccc1NC(=O)[C@H]1C(=O)N(C)CC[C@@H]1c1ccc(OC(F)(F)F)cc1 [Compound 1001]
0%: pest or weed control at 125 g/ha ([1]; 125 g ai/ha, Preemergence, visual injury rating after approximately 10 d, read-out: Kochia plant response rating (0 to 100 scale, 0 is no effect, 100 is complete control)) | pest or weed control at 500 g/ha ([1]; 500 g ai/ha, preemergence, visual injury rating about 10 d after treatment, 0 to 100 scale (0 no effect, 100 complete control), read-out: Kochia plant response rating) | pest or weed control at 125 g/ha ([2]; 125 g ai/ha, Preemergence, visual injury rating after approximately 10 d, read-out: Barnyardgrass plant response rating (0 to 100 scale, 0 is no effect, 100 is complete control)) | pest or weed control at 500 g/ha ([2]; 500 g ai/ha, preemergence, visual injury rating about 10 d after treatment, 0 to 100 scale (0 no effect, 100 complete control), read-out: Barnyardgrass plant response rating) | pest or weed control at 125 g/ha ([3]; 125 g ai/ha, Preemergence, visual injury rating after approximately 10 d, read-out: Foxtail, Giant plant response rating (0 to 100 scale, 0 is no effect, 100 is complete control)) | pest or weed control at 500 g/ha ([3]; 500 g ai/ha, preemergence, visual injury rating about 10 d after treatment, 0 to 100 scale (0 no effect, 100 complete control), read-out: Foxtail, Giant plant response rating) | pest or weed control at 125 g/ha ([4]; 125 g ai/ha, Preemergence, visual injury rating after approximately 10 d, read-out: Pigweed plant response rating (0 to 100 scale, 0 is no effect, 100 is complete control)) | pest or weed control at 500 g/ha ([4]; 500 g ai/ha, preemergence, visual injury rating about 10 d after treatment, 0 to 100 scale (0 no effect, 100 complete control), read-out: Pigweed plant response rating) | pest or weed control at 125 g/ha ([5]; 125 g ai/ha, Preemergence, visual injury rating after approximately 10 d, read-out: Ragweed plant response rating (0 to 100 scale, 0 is no effect, 100 is complete control)) | pest or weed control at 500 g/ha ([5]; 500 g ai/ha, preemergence, visual injury rating about 10 d after treatment, 0 to 100 scale (0 no effect, 100 complete control), read-out: Ragweed plant response rating) | pest or weed control at 125 g/ha ([6]; 125 g ai/ha, Preemergence, visual injury rating after approximately 10 d, read-out: Ryegrass, Italian plant response rating (0 to 100 scale, 0 is no effect, 100 is complete control)) | pest or weed control at 500 g/ha ([6]; 500 g ai/ha, preemergence, visual injury rating about 10 d after treatment, 0 to 100 scale (0 no effect, 100 complete control), read-out: Ryegrass, Italian plant response rating) | pest or weed control at 125 g/ha [7, 21] | pest or weed control at 500 g/ha [7, 22] | pest or weed control at 125 g/ha [8, 21] | pest or weed control at 500 g/ha [8, 22] | pest or weed control at 125 g/ha [9, 21] | pest or weed control at 500 g/ha [9, 22] | pest or weed control at 125 g/ha [10, 21] | pest or weed control at 500 g/ha [10, 22] | Corn plant response rating (crop injury, 0 = no effect, 100 = complete kill) at 125 g/ha [11, 21] | Corn plant response rating (crop injury, 0 = no effect, 100 = complete kill) at 500 g/ha [11, 22] | pest or weed control at 125 g/ha [12, 21] | pest or weed control at 500 g/ha [12, 22] | pest or weed control at 125 g/ha [13, 21] | pest or weed control at 500 g/ha [13, 22] | pest or weed control at 125 g/ha [14, 21] | pest or weed control at 500 g/ha [14, 22] | pest or weed control at 125 g/ha [15, 21] | pest or weed control at 500 g/ha [15, 22] | plant injury at 125 g/ha [16, 21] | plant injury at 500 g/ha [16, 22] | pest or weed control at 250 g/ha [17] | pest or weed control at 250 g/ha [18] | pest or weed control at 250 g/ha [19] | pest or weed control at 250 g/ha [20]
